Legend:
Assay in all cases: Bliss excess, mean over the matrix (fraction); higher = more synergy
[1] = system: SK-MG-1 (Low Grade Glioma)
Summary of the method: (§1)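 After 24 hours at 37°C and 5% CO2 in 1536-well plates, cells in DMEM/F12 or RPMI plus 10% FBS received two-drug dose matrices for 72 hours. Viability came from CellTiter-Glo 2.0 luminescence and was scaled as inhibition, anchored at 0 by vehicle wells and at 1 by blank wells. Combination Emax is taken as the second-highest inhibition in the matrix, and Bliss excess as the observed combination effect less EA + EB − EA·EB, with EA and EB the single-agent effects.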

[2] = system: TT2609-C02 (Thyroid Gland Carcinoma)
Summary of the method: as §1

[3] = system: COLO-320-HSR (Colorectal Carcinoma)
Summary of the method: as §1

[4] = system: MDST8 (Colorectal Carcinoma)
Summary of the method: as §1

[5] = system: U-2-OS (Osteosarcoma)
Summary of the method: as §1

[6] = system: NCI-H2141 (Small Cell Lung Carcinoma)
Summary of the method: as §1

[7] = system: KARPAS-422 (B-Cell Non-Hodgkin's Lymphoma)
Summary of the method: as §1

[8] = system: ECC10 (Gastric Carcinoma)
Summary of the method: as §1

[9] = system: BICR22 (Oral Cavity Carcinoma)
Summary of the method: as §1

[10] = system: Hs-445 (Non-Cancerous)
Summary of the method: as §1

[11] = system: A549 (Lung Adenocarcinoma)
Summary of the method: as §1

[12] = system: NCI-H1693 (Lung Adenocarcinoma)
Summary of the method: as §1

[13] = system: SISO (Cervical Carcinoma)
Summary of the method: as §1

[14] = system: OS-RC-2 (Kidney Carcinoma)
Summary of the method: as §1

[15] = system: CCK-81 (Colorectal Carcinoma)
Summary of the method: as §1

[16] = system: CAS-1 (Glioblastoma)
Summary of the method: as §1

[17] = system: NCI-H2591 (Mesothelioma)
Summary of the method: as §1

[18] = system: ONS-76 (Other Solid Carcinomas)
Summary of the method: as §1

[19] = system: FU97 (Gastric Carcinoma)
Summary of the method: as §1

[20] = system: PA-1 (Ovarian Carcinoma)
Summary of the method: as §1

Row | Compound | Bliss excess [1] | Bliss excess [2] | Bliss excess [3] | Bliss excess [4] | Bliss excess [5] | Bliss excess [6] | Bliss excess [7] | Bliss excess [8] | Bliss excess [9] | Bliss excess [10] | Bliss excess [11] | Bliss excess [12] | Bliss excess [13] | Bliss excess [14] | Bliss excess [15] | Bliss excess [16] | Bliss excess [17] | Bliss excess [18] | Bliss excess [19] | Bliss excess [20]
1 | Cc1cc2ncnn2cc1Nc1ncc2c(n1)n(C1CCOCC1)c(=O)n2C [AZD7648] + O=C(c1cc(Cc2n[nH]c(=O)c3ccccc23)ccc1F)N1CCN(C(=O)C2CC2)CC1 [Olaparib] (first compound max 10 µM, 7x7, partner max 10 µM) | -0.0455 | -0.0276 | -0.0169 | -0.043 | -0.0136 | -0.0603 | -0.0358 | -0.0305 | -0.0548 | 0.0006 | 0.0613 | -0.0299 | -0.0226 | -0.0486 | -0.0546 | -0.0909 | -0.0403 | -0.0419 | -0.0879 | -0.0072
2 | Cc1c2c(nn1C)CSCc1cc(n(C)n1)CSc1cc(c3ccccc3c1)OCCCc1c(C(=O)O)n(C)c3c-2c(Cl)ccc13 [AZD5991] + CN(C)CCCOc1ccc(-c2ccc3ncc4c(c3c2)n(C2CCOCC2)c(=O)n4C)cn1 [AZD0156] (first compound max 1 µM, 7x7, partner max 1 µM) | 0.0058 | 0.0199 | 0.0531 | 0.0114 | 0.0132 | -0.0146 | -0.0675 | -0.0158 | 0.016 | -0.106 | -0.026 | -0.0254 | 0.0222 | -0.0096 | 0.0379 | 0.0497 | 0.0036 | -0.0291 | -0.058 | 0.004
3 | CN(CCO)CC[C@H](CSc1ccccc1)Nc1ccc(S(=O)(=O)NC(=O)c2ccc(N3CCC([C@@H](O)c4ccccc4-c4ccc(Cl)cc4)CC3)cc2)cc1S(=O)(=O)C(F)(F)F [AZD4320] + Cc1cc2ncnn2cc1Nc1ncc2c(n1)n(C1CCOCC1)c(=O)n2C [AZD7648] (first compound max 1 µM, 7x7, partner max 10 µM) | -0.0239 | -0.0367 | -0.0099 | -0.0283 | -0.0294 | 0.0109 | -0.0071 | 0.025 | -0.0054 | 0.0079 | -0.0263 | -0.0639 | -0.0328 | -0.0524 | -0.0091 | -0.048 | -0.0445 | -0.0301 | -0.0375 | 0.0302
4 | NC1(C(=O)N[C@@H](CCO)c2ccc(Cl)cc2)CCN(c2ncnc3[nH]ccc23)CC1 [Capivasertib] + Cn1cnc2c(F)c(Nc3ccc(Br)cc3Cl)c(C(=O)NOCCO)cc21 [Selumetinib] (first compound max 10 µM, 7x7, partner max 10 µM) | 0.0059 | -0.0213 | 0.0222 | 0.0211 | 0.0009 | -0.051 | 0.0608 | 0.0563 | 0.114 | 0.0479 | 0.0052 | -0.0375 | 0.0089 | -0.0412 | 0.0753 | -0.0798 | -0.0052 | 0.0914 | 0.0653 | -0.0114
5 | CCc1c2c(nc3ccc(O)cc13)-c1cc3c(c(=O)n1C2)COC(=O)[C@]3(O)CC [SN-38] + O=C(c1cc(Cc2n[nH]c(=O)c3ccccc23)ccc1F)N1CCN(C(=O)C2CC2)CC1 [Olaparib] (first compound max 0.3 µM, 7x7, partner max 10 µM) | 0.0512 | – | -0.0523 | -0.0419 | 0.0159 | 0.0521 | 0.0276 | 0.119 | 0.0626 | 0.0811 | 0.0064 | – | 0.0546 | – | 0.0414 | -0.0274 | -0.0219 | 0.05 | -0.0043 | 0.0044
6 | CN(CCO)CC[C@H](CSc1ccccc1)Nc1ccc(S(=O)(=O)NC(=O)c2ccc(N3CCC([C@@H](O)c4ccccc4-c4ccc(Cl)cc4)CC3)cc2)cc1S(=O)(=O)C(F)(F)F [AZD4320] + CN(C)CCCOc1ccc(-c2ccc3ncc4c(c3c2)n(C2CCOCC2)c(=O)n4C)cn1 [AZD0156] (first compound max 1 µM, 7x7, partner max 1 µM) | -0.0377 | -0.0325 | -0.0136 | -0.0419 | -0.0215 | -0.0151 | 0.0093 | 0.0096 | -0.0364 | -0.0732 | -0.039 | -0.0226 | -0.0343 | -0.0706 | -0.0009 | -0.0328 | -0.0508 | -0.0494 | -0.0303 | -0.0528
7 | Cc1nc(Nc2ncc(C(=O)Nc3c(C)cccc3Cl)s2)cc(N2CCN(CCO)CC2)n1 [Dasatinib] + CC(=O)Nc1cccc(-n2c(=O)n(C3CC3)c(=O)c3c(Nc4ccc(I)cc4F)n(C)c(=O)c(C)c32)c1 [Trametinib] (first compound max 2 µM, 7x7, partner max 1 µM) | -0.0654 | 0.0898 | -0.0492 | -0.106 | -0.0411 | -0.0362 | -0.0371 | -0.0334 | -0.0037 | -0.0873 | 0.0224 | 0.0432 | -0.0267 | -0.0396 | -0.057 | -0.107 | -0.0757 | -0.0206 | 0.0039 | 0.013
8 | Cc1c2c(nn1C)CSCc1cc(n(C)n1)CSc1cc(c3ccccc3c1)OCCCc1c(C(=O)O)n(C)c3c-2c(Cl)ccc13 [AZD5991] + CCN(CCO)CCCOc1ccc2c(Nc3cc(CC(=O)Nc4cccc(F)c4)[nH]n3)ncnc2c1 [AZD2811] (first compound max 1 µM, 7x7, partner max 1 µM) | 0.0619 | 0.0119 | 0.0198 | 0.0586 | 0.0091 | 0.0657 | 0.0918 | 0.0058 | 0.0418 | 0.0869 | -0.0592 | 0.0102 | 0.108 | -0.0634 | 0.0227 | 0.061 | 0.0208 | 0.0619 | – | 0.0489
9 | CC(=O)c1c(C)c2cnc(Nc3ccc(N4CCNCC4)cn3)nc2n(C2CCCC2)c1=O [Palbociclib] + CN(CC[C@H](CSC1=CC=CC=C1)NC2=C(C=C(C=C2)S(=O)(=O)NC(=O)C3=CC=C(C=C3)N4CCC(CC4)[C@H](C5=CC=CC=C5C6=CC=C(C=C6)Cl)O)S(=O)(=O)C(F)(F)F)CCO [AZD4320] (first compound max 10 µM, 7x7, partner max 1 µM) | -0.078 | -0.0615 | – | -0.0168 | -0.0727 | -0.067 | – | – | – | 0.0465 | -0.0929 | -0.0313 | -0.0669 | -0.0999 | – | -0.143 | -0.0845 | – | – | -0.0315
10 | COc1nnc2ccc(N3CCC(c4ccc(OCCN5CCN(C)C(=O)[C@H]5C)cc4)CC3)nn12 [AZD5153] + CN(CC[C@H](CSC1=CC=CC=C1)NC2=C(C=C(C=C2)S(=O)(=O)NC(=O)C3=CC=C(C=C3)N4CCC(CC4)[C@H](C5=CC=CC=C5C6=CC=C(C=C6)Cl)O)S(=O)(=O)C(F)(F)F)CCO [AZD4320] (first compound max 1 µM, 7x7, partner max 1 µM) | 0.0462 | 0.0257 | – | 0.0929 | 0.0178 | 0.048 | – | – | – | 0.085 | -0.0236 | 0.04 | -0.0052 | 0.0115 | – | 0.0455 | 0.0088 | – | – | 0.0659
11 | Cc1c2c(nn1C)CSCc1cc(n(C)n1)CSc1cc(c3ccccc3c1)OCCCc1c(C(=O)O)n(C)c3c-2c(Cl)ccc13 [AZD5991] + C[C@@H]1COCCN1C2=NC(=NC(=C2)C3(CC3)[S@](=N)(=O)C)C4=C5C=CNC5=NC=C4 [AZD6738] (first compound max 1 µM, 7x7, partner max 10 µM) | 0.0868 | 0.0043 | 0.0363 | – | 0.0276 | 0.0675 | -0.0209 | 0.0683 | 0.0224 | -0.0064 | 0.0007 | 0.0316 | 0.0628 | 0.0211 | 0.0173 | 0.109 | 0.023 | -0.0017 | -0.0064 | 0.0702
12 | C[C@@H](c1ccc2nccn2c1)n1nnc2ncc(-c3cnn(C)c3)nc21 [Savolitinib] + CN(CC[C@H](CSC1=CC=CC=C1)NC2=C(C=C(C=C2)S(=O)(=O)NC(=O)C3=CC=C(C=C3)N4CCC(CC4)[C@H](C5=CC=CC=C5C6=CC=C(C=C6)Cl)O)S(=O)(=O)C(F)(F)F)CCO [AZD4320] (first compound max 1 µM, 7x7, partner max 1 µM) | -0.0651 | -0.103 | – | -0.0668 | -0.0128 | -0.0695 | – | – | – | -0.0452 | -0.0576 | -0.0491 | -0.045 | -0.0618 | – | -0.0975 | -0.0714 | – | – | -0.0096
13 | CC(=O)Nc1cccc(-n2c(=O)n(C3CC3)c(=O)c3c(Nc4ccc(I)cc4F)n(C)c(=O)c(C)c32)c1 [Trametinib] + Cc1nc(-c2cn3c(n2)-c2ccc(-c4cnn(C(C)(C)C(N)=O)c4)cc2OCC3)n(C(C)C)n1 [Taselisib] (first compound max 1 µM, 7x7, partner max 10 µM) | 0.144 | 0.0909 | 0.0338 | -0.0104 | 0.122 | -0.0299 | 0.0204 | 0.24 | 0.16 | 0.119 | 0.0568 | 0.0507 | 0.0809 | -0.0198 | 0.209 | 0.0153 | 0.0206 | 0.0124 | – | 0.05
14 | CN(CCO)CC[C@H](CSc1ccccc1)Nc1ccc(S(=O)(=O)NC(=O)c2ccc(N3CCC([C@@H](O)c4ccccc4-c4ccc(Cl)cc4)CC3)cc2)cc1S(=O)(=O)C(F)(F)F [AZD4320] + C[C@@H]1COCCN1C2=NC(=NC(=C2)C3(CC3)[S@](=N)(=O)C)C4=C5C=CNC5=NC=C4 [AZD6738] (first compound max 1 µM, 7x7, partner max 10 µM) | 0.0076 | -0.0542 | 0.0161 | -0.0578 | -0.0394 | – | 0.0896 | -0.0256 | -0.0433 | 0.0592 | -0.0778 | -0.0055 | -0.0078 | -0.0807 | -0.0546 | -0.0307 | -0.0462 | -0.0386 | -0.0215 | 0.0242

From the supplement of paper PMC11061612
